The target of this assay is T1, human orexin type 2 receptor (Homo sapiens, UniProt O43614).
T1 construct: expressed in transfected cells
T1 sequence (O43614 1-444): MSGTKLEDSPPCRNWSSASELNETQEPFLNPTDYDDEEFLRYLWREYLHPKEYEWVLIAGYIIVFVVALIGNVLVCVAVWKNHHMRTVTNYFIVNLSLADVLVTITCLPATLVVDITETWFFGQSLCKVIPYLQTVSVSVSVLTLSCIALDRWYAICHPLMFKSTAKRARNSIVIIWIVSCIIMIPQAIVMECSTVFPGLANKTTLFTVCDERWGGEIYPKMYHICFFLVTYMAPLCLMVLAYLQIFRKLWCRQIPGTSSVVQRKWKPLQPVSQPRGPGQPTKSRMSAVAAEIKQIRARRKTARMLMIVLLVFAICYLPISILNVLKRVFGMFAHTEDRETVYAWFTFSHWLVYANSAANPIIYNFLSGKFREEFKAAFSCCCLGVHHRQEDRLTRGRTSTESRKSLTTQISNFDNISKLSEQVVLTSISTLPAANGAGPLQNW
Kind of assay: Measurement of orexin type 2 receptor agonist activity (calcium indicator fluorescence, CHO cells forcibly expressing human OX2 receptor). Particulars: compound at 3 μM; 0% = DMSO, 100% = orexin A (human) 10 nM. Format: cell-based. An excerpt:
To obtain a cell clone stably expressing human orexin type 2 receptor, human orexin type 2 receptor cDNA was inserted into pcDNA3.1(+) plasmid vector (Invitrogen), and a plasmid DNA for expression of human orexin type 2 receptor (pcDNA3.1(+)/hOX2R) was cloned. The plasmid DNA was introduced into CHO-dhfr cell by an electroporation method, and human orexin type 2 receptor expressing clone cells were obtained by limiting dilution method by using G418 drug resistance as a selection marker.
CHO cells forcibly expressing human OX2 receptor were seeded in each well of 384 well black transparent bottom plate (BD Falcon) at 7,500 cells/well, and cultured for one day in a 5% CO2 incubator at 37° C. After removal of the medium in the cell plate, assay buffer A containing a calcium indicator (HBSS (Thermo Fisher Scientific), 20 mM HEPES (Thermo Fisher Scientific), 0.1% BSA (Sigma-Aldrich), 2.5 μg/mL Fluo-4 AM (DOJINDO Chemical), 0.08% Pluronic F127 (DOJINDO Chemical), 1.25 mM probenecid (DOJINDO Chemical)) was added at 30 μL/well. The plate was stood for 30 min in a 5% CO2 incubator at 37° C., and further stood at room temperature for 30 min. A test compound prepared by diluting with assay buffer B (HBSS, 20 mM HEPES, 0.1% BSA) was added at 10 μL/well, and the fluorescence value was measured by FDSSμCELL (Hamamatsu Photonics K.K.) every one sec for 1 min, and thereafter every two sec for […]. The activity (%) of the test compound was calculated assuming that variation in the fluorescence value when DMSO was added instead of the test compound was 0%, and variation in the fluorescence value when orexin A (human) (PEPTIDE INSTITUTE, INC.) was added at the final concentration of 10 nM was 100%.

This note sets out measurements from patent US20230040770A1, “HETEROCYCLIC COMPOUND AND USE THEREOF” (TAKEDA PHARMACEUTICAL COMPANY LIMITED, priority 2019, published 2023).

In the case of `CCS(=O)(=O)N[C@@H]1[C@H](Cc2cccc(-c3ccccc3)c2F)N(C(=O)C2CCO2)CC1(F)F` (stereo partly drawn) [Example 46, N-[(2S,3R)-4,4-difluoro-2-[(2-fluoro[1,1′-biphenyl]-3-yl)methyl]-1-(oxetane-2-carbonyl)pyrrolidin-3-yl]ethanesulfonamide], the “OX2R agonist activity (3 μM, %)” value turned out to be 102%.
The figure for `CCS(=O)(=O)N[C@@H]1[C@H](Cc2cccc(-c3cccc(C)c3)c2F)N(C(=O)N(C)C)CC1(F)F` [Example 284, (2S,3R)-3-[(ethanesulfonyl)amino]-4,4-difluoro-2-[(2-fluoro-3′-methyl[1,1′-biphenyl]-3-yl)methyl]-N,N-dimethylpyrrolidine-1-carboxamide] is 92%.
For `CCS(=O)(=O)N[C@H]1[C@@H](F)CN(C(=O)C(C)(C)O)[C@H]1Cc1cccc(-c2cccc(Cl)c2F)c1F` [Example 347, N-[(2S,3R,4S)-2-[(3′-chloro-2,2′-difluoro[1,1′-biphenyl]-3-yl)methyl]-4-fluoro-1-(2-hydroxy-2-methylpropanoyl)pyrrolidin-3-yl]ethanesulfonamide] the value was 102%; for `CN(C)C(=O)N1CC(F)(F)[C@H](NS(=O)(=O)N(C)C)[C@@H]1Cc1cccc(-c2cccc(F)c2)c1F` [Example 528, (2S,3R)-2-[(2,3′-difluoro[1,1′-biphenyl]-3-yl)methyl]-3-[(dimethylsulfamoyl)amino]-4,4-difluoro-N,N-dimethylpyrrolidine-1-carboxamide], 83%.
For `CCS(=O)(=O)N[C@H]1[C@@H](F)CN(C(=O)N(C)C)[C@H]1Cc1cccc(-c2cccc(C)c2F)c1F` [Example 408, (2S,3R,4S)-2-[(2,2′-difluoro-3′-methyl[1,1′-biphenyl]-3-yl)methyl]-3-[(ethanesulfonyl)amino]-4-fluoro-N,N-dimethylpyrrolidine-1-carboxamide] the value was 88%; for `CCS(=O)(=O)N[C@H]1[C@@H](F)CN(C(=O)C(C)C)[C@H]1Cc1cccc(-c2cccc(Cl)c2)c1F` [Example 298, N-[(2S,3R,4S)-2-[(3′-chloro-2-fluoro[1,1′-biphenyl]-3-yl)methyl]-4-fluoro-1-(2-methylpropanoyl)pyrrolidin-3-yl]ethanesulfonamide], 96%.
Turning to `O=C(N1CCC1)N1C[C@H](F)[C@H](NS(=O)(=O)C2CC2)[C@@H]1Cc1cccc(-c2cc(F)cc(F)c2)c1F` [Example 544, N-{(2S,3R,4S)-1-(azetidine-1-carbonyl)-4-fluoro-2-[(2,3′,5′-trifluoro[1,1′-biphenyl]-3-yl)methyl]pyrrolidin-3-yl}cyclopropanesulfonamide], the “OX2R agonist activity (3 μM, %)” value amounted to 90%.
For `Cc1cccc(-c2cccc(C[C@H]3[C@@H](NS(=O)(=O)C4CC4)C(F)(F)CN3C(=O)N(C)C)c2F)c1F` [Example 521, (2S,3R)-3-[(cyclopropanesulfonyl)amino]-2-[(2,2′-difluoro-3′-methyl[1,1′-biphenyl]-3 yl)methyl]-4,4-difluoro-N,N-dimethylpyrrolidine-1-carboxamide] the value was 97%.
The figure for `CCS(=O)(=O)N[C@H]1[C@@H](F)CN(C(=O)C(C)(C)O)[C@H]1Cc1cccc(-c2cc(F)cc(F)c2)c1F` [Example 220, N-{(2S,3R,4S)-4-fluoro-1-(2-hydroxy-2-methylpropanoyl)-2-[(2,3′,5′-trifluoro[1,1′-biphenyl]-3-yl)methyl]pyrrolidin-3-yl}ethanesulfonamide] is 90%; for `CCS(=O)(=O)N[C@H]1[C@@H](F)CN(C(=O)C2CC2)[C@H]1Cc1cccc(-c2cc(F)cc(Cl)c2)c1F` [Example 517, N-[(2S,3R,4S)-2-[(3′-chloro-2,5′-difluoro[1,1′-biphenyl]-3-yl)methyl]-1-(cyclopropanecarbonyl)-4-fluoropyrrolidin-3-yl]ethanesulfonamide] it is 100%.
The figure for `O=C(C1CCO1)N1C[C@H](F)[C@H](NS(=O)(=O)C2CC2)[C@@H]1Cc1cccc(-c2cc(F)ccc2F)c1F` (stereo partly drawn) [Example 481, N-{(2S,3R,4S)-4-fluoro-1-(oxetane-2-carbonyl)-2-[(2,2′,5′-trifluoro[1,1′-biphenyl]-3-yl)methyl]pyrrolidin-3-yl}cyclopropanesulfonamide] is 104%.
For `CCS(=O)(=O)N[C@@H]1[C@H](Cc2cccc(-c3cc(F)c(F)c(F)c3)c2F)N(C(=O)C2CCO2)CC1(F)F` (stereo partly drawn) [Example 473, N-{(2S,3R)-4,4-difluoro-1-(oxetane-2-carbonyl)-2-[(2,3′,4′,5′-tetrafluoro[1,1′-biphenyl]-3-yl)methyl]pyrrolidin-3-yl}ethanesulfonamide], the “OX2R agonist activity (3 μM, %)” value was 97%.
Take `CCS(=O)(=O)N[C@@H]1[C@H](Cc2cccc(-c3cccc(C)c3F)c2F)N(C(=O)N2CCC2)CC1(F)F` [Example 291, N-{(2S,3R)-1-(azetidine-1-carbonyl)-2-[(2,2′-difluoro-3′-methyl[1,1′-biphenyl]-3-yl)methyl]-4,4-difluoropyrrolidin-3-yl}ethanesulfonamide]: the “OX2R agonist activity (3 μM, %)” value was found to be 90%.
The figure for `CCS(=O)(=O)N[C@@H]1[C@H](Cc2cccc(-c3cc(F)cc(Cl)c3)c2F)N(C(=O)C2CC2)CC1(F)F` [Example 248, N-[(2S,3R)-2-[(3′-chloro-2,5′-difluoro[1,1′-biphenyl]-3-yl)methyl]-1-(cyclopropanecarbonyl)-4,4-difluoropyrrolidin-3-yl]ethanesulfonamide] is 90%; for `CCS(=O)(=O)N[C@@H]1[C@H](Cc2cccc(-c3cccc(F)c3)c2F)N(C(=O)[C@H]2CCCO2)CC1(F)F` [Example 453, N-{(2S,3R)-2-[(2,3′-difluoro[1,1′-biphenyl]-3-yl)methyl]-4,4-difluoro-1-[(2R)-oxolane-2-carbonyl]pyrrolidin-3-yl}ethanesulfonamide] it is 85%; for `CS(=O)(=O)N[C@@H]1[C@H](Cc2cccc(-c3ccccc3)c2F)N(C(=O)C2CC(F)C2)CC1(F)F` (stereo partly drawn) [Example 440, N-[(2S,3R)-4,4-difluoro-2-[(2-fluoro[1,1′-biphenyl]-3-yl)methyl]-1-(3-fluorocyclobutane-1-carbonyl)pyrrolidin-3-yl]methanesulfonamide] it is 94%.
With `CCS(=O)(=O)N[C@@H]1[C@H](Cc2cccc(-c3ccc(F)c(F)c3)c2F)N(C(=O)C2CCO2)CC1(F)F` (stereo partly drawn) [Example 467, N-{(2S,3R)-4,4-difluoro-1-(oxetane-2-carbonyl)-2-[(2,3′,4′-trifluoro[1,1′-biphenyl]-3-yl)methyl]pyrrolidin-3-yl}ethanesulfonamide], the “OX2R agonist activity (3 μM, %)” value was 105%.
The figure for `CCS(=O)(=O)N[C@H]1[C@@H](F)CN(C(=O)N(C)C)[C@H]1Cc1cccc(-c2cccc(C)c2)c1F` [Example 333, (2S,3R,4S)-3-[(ethanesulfonyl)amino]-4-fluoro-2-[(2-fluoro-3′-methyl[1,1′-biphenyl]-3-yl)methyl]-N,N-dimethylpyrrolidine-1-carboxamide] is 78%; for `CCS(=O)(=O)N[C@H]1[C@@H](F)CN(C(=O)C2CCO2)[C@H]1Cc1cccc(-c2cccc(Cl)c2)c1F` (stereo partly drawn) [Example 368, N-[(2S,3R,4S)-2-[(3′-chloro-2-fluoro[1,1′-biphenyl]-3-yl)methyl]-4-fluoro-1-(oxetane-2-carbonyl)pyrrolidin-3-yl]ethanesulfonamide] it is 95%.
